Laboratory results taken from patent publication US7981915B2, “Methods for modulating PPAR biological activity for the treatment of diseases caused by mutations in the CFTR gene” (Beth Israel Deaconess Medical Center, priority 2003, dated 2011).
One block for each molecule: values may come before it.

Legend:
PPARα mRNA [1] = experiment: Liver PPARα mRNA by quantitative RT-PCR (DSS colitis / DHA); assay type: in vivo, mice
Method: (§1) On day 40, WT and cftr^−/− mice were fed Peptamen alone or Peptamen plus 125 mg DSS/day (MP Biomedicals, Aurora, Ohio) for 5 days followed by 9 days of 85 mg DSS/day as previously described for the genesis of bile duct injury (Blanco, P. G. et al., supra). The amount of DSS in Peptamen was equally measured for WT and cftr^−/− mice. The volume of Peptamen administered (20 ml) was measured on a daily basis. There was no difference in Peptamen intake between WT and cftr^−/− mice. The mean weight of WT mice at the start of DSS treatment was 20.5 g (range 14.5-26 g), and the mean weight of cftr^−/− mice was 18.9 g (range 15.5-23.5 g). These values were not statistically different between WT and cftr^−/− mice. […] There was no difference in weight lost during DSS treatment comparing WT and cftr^−/− mice. Additional mice from these groups were given DHA (Pure Encapsulations, Sudbury, Mass.) prepared as a stable emulsion in Peptamen, at a dose of 40 mg per day for 5 days before and continued for 14 days during administration of the DSS. Bile duct injury was quantified, as previously described, by examining histological features of epithelial injury, bile duct proliferation, and bile duct angulation (Blanco et al., supra). To determine whether a complete absence of PPARα was responsible for the bile duct injury, 5 PPARα^−/− mice were treated with 5% DSS in drinking water for 7 days to induce colitis (Okayasu et al., Gastroenterology, 98:694-702, 1990). PPARγ^−/− mice are not viable and thus were not tested.
After each specific treatment, the mice were euthanized with carbon dioxide. Tissues were snap frozen in RNAlater (Ambion, Austin, Tex.) for RNA extraction (Barrett et al., Nat Genet, 23:32-33, 1999). PPAR mRNA analyses were performed by quantitative RT-PCR. Total RNA from cftr^−/− and WT tissues was prepared using the RNA STAT-60 isolation reagent (Tel-Test, Friendswood, Tex.) and quantified spectrophotometrically. Quantitative PCR was performed in an ABI Prism 7700 Sequence Detector (Applied Biosystems, Foster City, Calif.) using a RT-PCR master mix kit (Applied Biosystems) according to the manufacturer's instructions. PCR primers and PPAR FAM-labeled TaqMan probes were from Integrated DNA Technologies (Coralville, Iowa). The oligonucleotide sequences used for PPARγ were the following: PPARγ exon 2 FW 5′-TCACAAGAGCTGACCCAATGGT-3′ (SEQ ID NO: 1), PPARγ exon 2 RV 5′-ATAATAAGGTGGAGATGCAGGTTCTAC-3′ (SEQ ID NO: 2), PPARγ probe 5′-FAM-CTGAAGCTCCAAGAATACCAAAGTGCGATC-TAMRA-3′ (SEQ ID NO: 3). The sequences used for PPARα were the following: PPARα FW 5′-TATTCGGCTGAAGCTGGTGTAC-3′ (SEQ ID NO: 9), PPARα RV 5′-CTGGCATTTGTTCCGGTTCT-3′ (SEQ ID NO: 10), PPARα probe 5′-CTGAATCTTGCAGCTCCGATCACACTTG-3′ (SEQ ID NO: 11). Levels of mRNA were normalized to 18s ribosomal RNA (ribosomal RNA control reagents, Applied Biosystems) quantified simultaneously to PPAR in a multiplex RT-PCR reaction. Thermocycler conditions used were—Stage 1: 48° C./30 minutes; Stage 2: 95° C./10 minutes; Stage 3: 40 cycles of 95° C./15 seconds and 60° C./60 seconds. All samples were analyzed in duplicate.

PPARα = biological target: T1, PPARα (Mus musculus, UniProt P23204); experiment: Western blot of PPARα in nuclear and cytosolic liver extracts; assay type: in vivo; details: 3 mice per group
T1 construct: from tissue; host or cells: mouse liver homogenate (WT and cftr-/- C57/BL6)
T1 sequence (P23204 1-468): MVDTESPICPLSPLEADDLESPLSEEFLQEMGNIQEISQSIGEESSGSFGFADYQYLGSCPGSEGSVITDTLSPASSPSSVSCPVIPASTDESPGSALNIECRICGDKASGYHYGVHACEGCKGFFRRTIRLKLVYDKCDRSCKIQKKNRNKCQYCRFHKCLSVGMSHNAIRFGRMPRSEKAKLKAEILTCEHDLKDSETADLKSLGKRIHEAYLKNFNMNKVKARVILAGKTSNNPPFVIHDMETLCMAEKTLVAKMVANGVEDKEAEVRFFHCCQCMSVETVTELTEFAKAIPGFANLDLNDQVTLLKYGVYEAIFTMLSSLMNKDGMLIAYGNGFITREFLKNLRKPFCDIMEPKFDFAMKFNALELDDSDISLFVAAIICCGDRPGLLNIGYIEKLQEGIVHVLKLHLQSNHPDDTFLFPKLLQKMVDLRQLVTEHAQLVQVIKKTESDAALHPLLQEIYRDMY
Method: as §1, with “Additional mice from these groups were given DHA (Pure Encapsulations, Sudbury, Mass.) prepared as a stable emulsion in Peptamen, at a dose of 40 mg per day for 5 days before and continued for 14 days during administration of the DSS.” left out, “To determine whether a complete absence of PPARα was responsible for the bile duct injury, 5 PPARα^−/− mice were treated with 5% DSS in drinking water for 7 days to induce colitis (Okayasu et al., Gastroenterology, 98:694-702, 1990). PPARγ^−/− mice are not viable and thus were not tested.” left out
For western blotting, nuclear and cytoplasmic extracts were prepared as described previously (Ollero et al., supra). […] Protein concentration was measured in all samples by the Bradford protein assay (Bio-Rad, Hercules, Calif.). […]

PPARγ mRNA = experiment: Liver PPARγ mRNA by quantitative RT-PCR (DSS colitis / DHA); assay type: in vivo; details: WT and cftr−/− mice; DSS in the absence or presence of DHA; to undetectable levels
Method: On day 40, WT and cftr^−/− mice were fed Peptamen alone or Peptamen plus 125 mg DSS/day (MP Biomedicals, Aurora, Ohio) for 5 days followed by 9 days of 85 mg DSS/day as previously described for the genesis of bile duct injury (Blanco, P. G. et al., supra). The amount of DSS in Peptamen was equally measured for WT and cftr^−/− mice. The volume of Peptamen administered (20 ml) was measured on a daily basis. There was no difference in Peptamen intake between WT and cftr^−/− mice. The mean weight of WT mice at the start of DSS treatment was 20.5 g (range 14.5-26 g), and the mean weight of cftr^−/− mice was 18.9 g (range 15.5-23.5 g). […] Bile duct injury was quantified, as previously described, by examining histological features of epithelial injury, bile duct proliferation, and bile duct angulation (Blanco et al., supra). […]
After each specific treatment, the mice were euthanized with carbon dioxide. […] PPAR mRNA analyses were performed by quantitative RT-PCR. Total RNA from cftr^−/− and WT tissues was prepared using the RNA STAT-60 isolation reagent (Tel-Test, Friendswood, Tex.) and quantified spectrophotometrically. Quantitative PCR was performed in an ABI Prism 7700 Sequence Detector (Applied Biosystems, Foster City, Calif.) using a RT-PCR master mix kit (Applied Biosystems) according to the manufacturer's instructions. […] All samples were analyzed in duplicate.

TNFα = experiment: LPS-induced TNFα secretion from peritoneal macrophages incubated in vitro with PPAR agonists; assay type: cell-based, mice; details: in vitro 12 hours, DHA 5 μM, Wy14643 50 μM, rosiglitazone 10 μM
Method: (§2) Cftr^−/− exon 10 knockout mice and wild-type (WT) littermates were maintained on peptamen (as described above). Peritoneal macrophages were induced by intraperitoneal injection of 2 ml thioglycollate broth followed by harvesting of the macrophages 4 days after injection. For studies determining the effect of in vivo pretreatment of DHA, cftr^−/− mice were given 40 mg DHA/day for 10 days. For in vitro experiments, harvested macrophages were plated in RPMI medium with 10% serum and incubated for 12 hours with media alone or with DHA (5 μM), EPA (5 μM) the PPAR agonist Wy14643 (50 μM) or the PPAR agonist rosiglitazone (10 μM). The cells were washed and then stimulated with 0-10000 ng/ml LPS for 4.5 hours. TNFα and IL-6 secretion were measured by ELISA. Fatty acids were analyzed by GC/MS.

IL-6 [2] = experiment: LPS-induced IL-6 secretion from peritoneal macrophages incubated in vitro with PPAR agonists; assay type: cell-based, mice; details: CF macrophages; in vitro 12 hours; Wy14643 50 μM, rosiglitazone 10 μM; 100 ng/ml LPS
PPARα mRNA [3] = details: rat liver; cited from earlier work
IL-6 [4] = experiment: LPS-induced IL-6 secretion from peritoneal macrophages after in vivo DHA pretreatment; design: species or system mice; details: CF peritoneal macrophages; oral DHA pretreatment 40 mg/day for 10 days
Method: as §2

[5] = WT mice, single treatment, compared to untreated
[6] = cftr−/− mice, single treatment, compared to untreated

PPARα nuclear/cytoplasmic ratio, liver (densitometry) (PPARα; WT mice): 1.06±0.05
PPARα nuclear/cytoplasmic ratio, liver (densitometry) (PPARα; cftr−/− mice): 0.61±0.02
Molecule: dextran sodium sulfate [DSS]
increase in liver PPARα mRNA (PPARα mRNA [1]; [5]): 9.3 fold
increase in liver PPARα mRNA (PPARα mRNA [1]; [6]): no significant change
liver PPARγ mRNA levels (PPARγ mRNA): markedly suppressed

Molecule: CN(CCOc1ccc(CC2SC(=O)NC2=O)cc1)c1ccccn1 (stereo not shown) [rosiglitazone]
decrease in LPS induced TNFα secretion (TNFα; WT macrophages): 18%
decrease in LPS induced IL-6 secretion (IL-6 [2]): no effect

Molecule: Cc1cccc(Nc2cc(Cl)nc(SCC(=O)O)n2)c1C [Wy14643]
decrease in LPS induced TNFα secretion (TNFα; WT macrophages): did not alter secretion
PPARα mRNA levels (PPARα mRNA [3]): increase PPARα mRNA levels

Molecule: CC/C=C\C/C=C\C/C=C\C/C=C\C/C=C\CCCC(=O)O [EPA, eicosapentaenoic acid]
decrease in LPS induced TNFα secretion (TNFα; CF macrophages, EPA 5 μM, 100 ng/ml LPS): no effect

Molecule: CC/C=C\C/C=C\C/C=C\C/C=C\C/C=C\C/C=C\CCC(=O)O [DHA, Docosahexaenoic Acid]
increase in liver PPARα mRNA (PPARα mRNA [1]; WT mice, combination of DSS and DHA, compared to no DSS and no DHA): 10.4 fold
increase in liver PPARα mRNA (PPARα mRNA [1]; [5]): 12.1 fold
increase in liver PPARα mRNA (PPARα mRNA [1]; cftr−/− mice, combination of DSS and DHA, compared to DSS only, not statistically significant): 2.7 fold
increase in liver PPARα mRNA (PPARα mRNA [1]; cftr−/− mice, combination of DSS and DHA, compared to no DSS and no DHA): 4.3 fold
increase in liver PPARα mRNA (PPARα mRNA [1]; [6]): 7.0 fold
LPS-induced IL-6 secretion (IL-6 [4]): no effect
